Earlier results, collected in US20030207327A1, “Coisogenic eukaryotic cell collections” (priority 2001, published 2003).
Where a chain is given by its changes, count along the chain named. Where two headings read alike, the source gives them in different places.

How the values were obtained:
[1] = target: T1, TPMT (thiopurine S-methyltransferase) (Homo sapiens, UniProt P51580, A154T); conditions: TPMT variant G460A, Ala154Thr; OMIM 187680
T1 sequence (P51580 1-245 A154T): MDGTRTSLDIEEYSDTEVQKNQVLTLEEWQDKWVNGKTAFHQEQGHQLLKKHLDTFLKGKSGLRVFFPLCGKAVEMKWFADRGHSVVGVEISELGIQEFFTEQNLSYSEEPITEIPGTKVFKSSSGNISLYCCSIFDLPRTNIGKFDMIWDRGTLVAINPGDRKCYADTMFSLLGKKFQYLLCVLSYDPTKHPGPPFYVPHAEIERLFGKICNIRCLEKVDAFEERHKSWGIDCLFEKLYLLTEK

[2] = target: T2, TPMT (thiopurine S-methyltransferase) (Homo sapiens, UniProt P51580, Y240C); conditions: TPMT variant A719G, Tyr240Cys; OMIM 187680
T2 sequence (P51580 1-245 Y240C): T1 sequence (P51580 1-245 A154T) with T154A, Y240C

[3] = target: T3, TPMT (thiopurine S-methyltransferase) (Homo sapiens, UniProt P51580, A80P); conditions: TPMT variant G238C, Ala80Pro; OMIM 187680
T3 sequence (P51580 1-245 A80P): T1 sequence (P51580 1-245 A154T) with A80P, T154A

[4] = target: T4, TPMT (thiopurine S-methyltransferase) (Homo sapiens, UniProt P51580, R215H); conditions: TPMT variant G644A, Arg215His; OMIM 187680
T4 sequence (P51580 1-245 R215H): T1 sequence (P51580 1-245 A154T) with T154A, R215H

CYP2D6 = conditions: protein variant Gly169Ter; poor drug metabolizer; OMIM 124030
[5] = target: ABCB1 (MDR1, P-glycoprotein) (Homo sapiens, UniProt P08183, G185V)
Chain of ABCB1 (MDR1, P-glycoprotein) (P08183 whole entry G185V, canonical isoform): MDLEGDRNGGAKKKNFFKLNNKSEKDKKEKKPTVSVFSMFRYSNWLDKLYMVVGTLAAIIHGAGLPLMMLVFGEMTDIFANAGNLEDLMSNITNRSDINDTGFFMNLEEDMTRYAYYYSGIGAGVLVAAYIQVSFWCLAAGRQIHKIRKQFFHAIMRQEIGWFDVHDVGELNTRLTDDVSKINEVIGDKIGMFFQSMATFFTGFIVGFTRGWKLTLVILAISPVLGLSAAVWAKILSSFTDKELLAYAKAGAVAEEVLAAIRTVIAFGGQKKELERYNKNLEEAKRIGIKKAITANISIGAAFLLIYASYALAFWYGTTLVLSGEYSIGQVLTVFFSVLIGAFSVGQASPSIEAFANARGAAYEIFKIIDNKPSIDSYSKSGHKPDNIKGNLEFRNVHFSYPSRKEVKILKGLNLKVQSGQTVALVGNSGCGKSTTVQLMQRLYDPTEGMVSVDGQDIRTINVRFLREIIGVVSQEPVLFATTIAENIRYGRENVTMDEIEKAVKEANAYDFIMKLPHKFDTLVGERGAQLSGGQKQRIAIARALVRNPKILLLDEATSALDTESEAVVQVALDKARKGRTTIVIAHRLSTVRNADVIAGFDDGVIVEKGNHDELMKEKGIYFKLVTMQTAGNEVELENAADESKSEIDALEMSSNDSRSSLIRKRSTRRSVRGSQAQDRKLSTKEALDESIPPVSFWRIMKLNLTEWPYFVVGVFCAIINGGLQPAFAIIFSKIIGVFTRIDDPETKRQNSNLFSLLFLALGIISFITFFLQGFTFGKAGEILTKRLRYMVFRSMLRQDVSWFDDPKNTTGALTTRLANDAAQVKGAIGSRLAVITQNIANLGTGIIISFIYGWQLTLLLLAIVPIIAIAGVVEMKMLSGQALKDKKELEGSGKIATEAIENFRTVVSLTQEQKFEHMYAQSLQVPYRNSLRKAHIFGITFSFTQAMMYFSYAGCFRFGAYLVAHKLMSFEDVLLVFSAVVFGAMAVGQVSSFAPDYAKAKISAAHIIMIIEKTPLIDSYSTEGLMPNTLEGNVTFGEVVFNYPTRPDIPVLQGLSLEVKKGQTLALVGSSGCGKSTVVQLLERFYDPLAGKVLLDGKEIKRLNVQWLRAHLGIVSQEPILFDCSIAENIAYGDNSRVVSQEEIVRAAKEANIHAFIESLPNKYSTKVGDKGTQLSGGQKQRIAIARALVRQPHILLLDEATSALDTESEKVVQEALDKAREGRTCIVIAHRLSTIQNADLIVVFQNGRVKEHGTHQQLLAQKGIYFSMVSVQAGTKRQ

[6] = system: beta tubulin (Isoform M40)

In the case of Sc1ncnc2nc[nH]c12 [6-mercaptopurine], the Phenotype [1] is listed as “sensitivity”, the Phenotype [2] is listed as “sensitivity” and the Phenotype [3] is listed as “sensitivity”. The Phenotype [4] was “sensitivity”.

In the case of N=C(N)N1CCc2ccccc2C1 [Debrisoquine], the Phenotype (CYP2D6) is listed as “Debrisoquine, poor”.

For COc1cc2c(c(OC)c1OC)-c1ccc(OC)c(=O)cc1[C@@H](NC(C)=O)CC2 [colchicine], the “Phenotype: colchicine resistance” value [5] is given as “increased”.

In the case of CC(=O)O[C@H]1C(=O)[C@@]2(C)[C@H]([C@H](OC(=O)c3ccccc3)[C@]3(O)C[C@H](OC(=O)[C@H](O)[C@@H](NC(=O)c4ccccc4)c4ccccc4)C(C)=C1C3(C)C)[C@]1(OC(C)=O)CO[C@@H]1C[C@@H]2O [paclitaxel], the “Phenotype (response to paclitaxel)” value ([6]; beta tubulin variant Ala364Thr (G1092A)) is given as “resistance” and the “Phenotype (response to paclitaxel)” value ([6]; beta tubulin variant Phe270Val (T810G)) is given as “resistance”.
